Data reported in patent US5376645A (University of Kansas, priority 1992, dated 1994).

How the values were obtained:
red blood cell = assay: Hemolysis of red blood cells (membrane disruption); assay type: cell-based
From the text: The mono substituted derivatives caused about the same amount of membrane disruption as the hydroxypropyl derivative.

[1] = Phase solubility: association constant with phenytoin; assay type: physicochemical; conditions: 1:1 complex
From the text: Similar results can be seen for progesterone (see Table 3 and FIGS. 5 and 6), phenytoin (see Table 4 and FIGS. 7 and 8), and testosterone (see Table 5 and FIGS. 9 and 10).

[2] = Phase solubility: association constant with digoxin; assay type: physicochemical; conditions: 1:1 complex
[3] = Plasma urea nitrogen (kidney function); assay type: in vivo; conditions: mice; 24 hrs; n = 4; normal saline control 15.88 ± 1.21
From the text: Plasma urea nitrogen levels are an indicator of kidney function with higher levels indicating renal damage. […] There is however no statistical difference between our derivatives and the hydroxypropyl derivative.
^(1) SIGMA Urea Nitrogen Procedure No. 640A

[4] = Phase solubility: association constant with testosterone; assay type: physicochemical; conditions: 1:1 complex

Structure (SMILES): OC[C@H]1O[C@@H]2O[C@H]3[C@H](O)[C@@H](O)[C@@H](O[C@H]4[C@H](O)[C@@H](O)[C@@H](O[C@H]5[C@H](O)[C@@H](O)[C@@H](O[C@H]6[C@H](O)[C@@H](O)[C@@H](O[C@H]7[C@H](O)[C@@H](O)[C@@H](O[C@H]8[C@H](O)[C@@H](O)[C@@H](O[C@H]1[C@H](O)[C@H]2O)O[C@@H]8CO)O[C@@H]7CO)O[C@@H]6CO)O[C@@H]5CO)O[C@@H]4CO)O[C@@H]3CO [β-Cyclodextrin, β-cyclodextrin]
- membrane disruption / percent hemolysis (in words) (red blood cell): causing the most membrane disruption
- Phenytoin association constant K1:1 [1]: 1510 M⁻¹
- Digoxin association constant K1:1 [2]: 28200 M⁻¹
- Plasma Urea Nitrogen, PUN + S.D. [3]: 160.10 ± 26.16 mg/dL
- Testosterone association constant K1:1 [4]: 17800 M⁻¹
